# Data as given in patent US11179395B2, “Treating melanoma with mebendazole and a mitogen-activated kinase inhibitor” (GEORGETOWN UNIVERSITY, priority 2017, dated 2021).
# Where two headings read alike, the source gives them in different places.
# How the values were obtained:
# [1] = Pharmacokinetic studies of MBZ formulations; assay type: in vivo, athymic mice; settings: for mean plasma exposure at 8 hours / concentration at 8 h: MBZ 40 mg/kg oral gavage; for concentration at 8 h: athymic, mouse, plasma, oral, 40 mg/kg, read-out: mean plasma exposure at 8 hours
# Method: In pharmacokinetic (PK) studies, MBZ was administered to athymic mice (described below) by oral gavage at a dose of 40 mg/kg in three different formulations (methylcellulose, oleic acid, or sesame oil/PBS) or methylcellulose in combination with cimetidine. MBZ and two metabolites, 2-Amino-5-benzoyl-1H bezimidizole (2ABB), and rac Dihydro MBZ (RDM), were quantified in mouse plasma as described in Bai et al., “Brain Penetration and Efficacy of Different Mebendazole Polymorphs in a Mouse Brain Tumor Model,” Clin. Cancer Res. 21:3462-3470 (2015)).
# [2] = Pharmacokinetic studies of MBZ formulations; assay type: in vivo, athymic mice; settings: MBZ 40 mg/kg oral gavage; for lower exposure with trametinib co-administration vs. methylcellulose: 8 hours
# BRAFV600E = BRAFV600E (Homo sapiens, UniProt P15056, V600E); assay: In-vitro binding affinity of MBZ (FIG. 1C)
# From the text: (§1) Efforts to develop drugs targeting mutant BRAF led to FDA approval of vemurafenib in 2011 and dabrafenib in 2013. […] In addition, other MAPK pathway proteins including CRAF and MEK were identified.
# BRAFWT = BRAFWT (Homo sapiens, UniProt P15056); assay: In-vitro binding affinity of MBZ (FIG. 1C)
# From the text: as §1
# BRAF = assay: In-vitro kinase assay; assay type: biochemical
# From the text: as §1
# MEK = assay: In-vitro kinase assay; assay type: biochemical
# From the text: as §1
# CRAF = CRAF (Homo sapiens, UniProt P04049); assay: Affinity of MBZ for CRAF; assay type: binding
# From the text: MBZ interacts with VEGFR in silico and MBZ interacts with additional kinases in vitro, including BCR-ABL and BRAF. TMFS was used to show the nature of the interactions between MBZ, and VEGFR, and with BRAFWT or BRAFV600E. […] In fact these inhibitors actually enhance growth of NRASmut/BRAFWT tumors by paradoxically further activating the MAPK pathway through induced conformational changes in wild type RAF isoforms, inducing dimerization, membrane localization, and activation by RAS.
# VEGFR2 = VEGFR2 (Homo sapiens, UniProt P35968); assay: MBZ potency towards VEGFR2 compared with BRAF (FIG. 1C); assay type: biochemical
# [3] = system: BAK, BUL and STU melanoma cells; assay: XTT cell viability assay, all three melanoma cell lines; assay type: cell-based, Human; settings: 72 h
# Method: FIGS. 2A-2C show decreased viability of melanoma cells exposed to MBZ, dabrafenib (D), trametinib (T), or combinations of T+D or MBZ+trametinib. A) BAK (BRAFWT/NRASQ61K); B) BUL (BRAFWT/NRASQ61K); and C.) STU (BRAFV600K/NRASWT) melanoma cells were exposed to the indicated concentrations of MBZ, D, T, T+D or MBZ+trametinib (T+MBZ) for 72 h, and subjected to XTT cell viability assays, as described in the Examples. Error bars represent mean±SD for triplicates. […] The results shown are based on a single experiment in triplicate; and repeated in three independent experiments with essentially the same results.
# MBZ, dabrafenib, and trametinib were purchased from Sigma-Aldrich (St. Louis, Mo.) and ActiveBiochem (Maplewood, N.J.), respectively. 5×10^3 viable cells per well were plated in 96-well dishes and allowed to recover for 12 h prior to drug treatment. Cells in triplicate wells were treated for up to 72 h (based on initial time course experiments showing maximal effects at that time point) with different concentrations of trametinib, dabrafenib, or MBZ alone, or a combination of MBZ and trametinib. Negative controls were exposed to vehicle DMSO in the same volumes. Cell viability was assessed by an XTT assay, according to a manufacturer's specifications (Biotium Inc (Fremont, Calif.)). Reduced XTT was measured by absorbance at 490 nm on a PerkinElmer Victor 3 (Duluth, Ga.) plate reader. Cells exposed to detergent served as a positive control.
# [4] = system: BAK (BRAFWT/NRASQ61K) melanoma cells; assay: XTT cell viability assay; assay type: cell-based; settings: Homo sapiens; cultured NRAS cells, FIG. 2A; read-out: IC80 (equivalent to patient mean peak plasma concentration)
# Method: MBZ, dabrafenib, and trametinib were purchased from Sigma-Aldrich (St. Louis, Mo.) and ActiveBiochem (Maplewood, N.J.), respectively. […] Cell viability was assessed by an XTT assay, according to a manufacturer's specifications (Biotium Inc (Fremont, Calif.)). Reduced XTT was measured by absorbance at 490 nm on a PerkinElmer Victor 3 (Duluth, Ga.) plate reader. […]
# The results shown are based on a single experiment in triplicate, and repeated in three independent experiments with essentially the same results. […] For determining synergism, the combination index (τ) was calculated from single dose-response curves and combination experiments as τ=xA/XA+xB/XB, in which, for a given cytotoxic effect, xA and xB are the concentrations of drugs A and B in the combination, and XA and XB are the concentrations of drugs A and B that achieve the same cytotoxic effect when given alone. […]
# [5] = system: patient-derived metastatic melanoma cells harboring a BRAFWT/NRASQ61K mutation profile; assay: Treatment of patient-derived metastatic melanoma cells (FIG. 7); assay type: cell-based, Human
# From the text: In additional studies, patient-derived cells harboring a BRAFWT/NRASQ61K mutation profile were separated into CD133+ populations and CD133− populations.
# [6] = system: BAK (BRAFWT/NRASQ61K) melanoma xenografts; assay: Mouse xenografting, tumor growth; assay type: in vivo, athymic mice; settings: oral gavage; MBZ 40 mg/kg/qad, trametinib 0.1 or 3 mg/kg/qd
# Method: Athymic mice were injected with 3×10^6 BAK melanoma cells, and tumors were allowed to grow to a volume of 100 mm^3. Animals were then gavaged with vehicle emulsion control, 40 mg/kg/qad (every other day) MBZ, low dose trametinib (LDT; 0.1 mg/kg/qd (once a day)), high dose trametinib (HDT; 3 mg/kg/qd) or a combination of MBZ and LDT or HDT, A) Tumor widths and lengths were measured and volumes calculated as w2×l/2, where width is defined as the smaller of the tumor dimensions. Time 0 is the tumor volume on the first day of treatment; tumor sizes were normalized to their size at time 0 of drug treatment. B) Mice were weighed every other day and body weights (g) plotted over time. […]
# Athymic 6-week old male mice (Taconic (Hudson, N.Y.)) were acclimated to the Division of Comparative Medicine at Georgetown University a week prior to xenografting. […] Tumor growth was measured with calipers, and drug treatment started when tumor volumes reached 100 mm^3, after which mice were monitored daily for drug efficacy, as well for adverse effects, including weight and behavior. […] Each tumor from each treatment group was measured on indicated days, and all tumor sizes were then normalized to their size at day 0 of drug treatment. […] The results were expressed as the mean (±SD) of tumor volume in each group.
# [7] = system: MEK1/2 and ERK1/2 phosphorylation; assay: Immunoblot analysis of xenograft tumor extracts; assay type: in vivo, athymic mice; settings: tumors collected at termination of experiment; combination is HDT+MBZ
# Method: Athymic mice were injected with 3×10^6 BAK melanoma cells, and tumors were allowed to grow to a volume of 100 mm^3. […] Time 0 is the tumor volume on the first day of treatment; tumor sizes were normalized to their size at time 0 of drug treatment. B) Mice were weighed every other day and body weights (g) plotted over time. Data from four experiments were combined for statistical analysis, to compare every mouse from each treatment group. The total mice for all experiments included vehicle control (n=13), LDT (n=12), MBZ (n=12), HDT (n=12), LDT+MBZ (n=12), and HDT+MBZ (n=15). The results are shown as the mean (+SD) of tumor volume in each group. C) and D) ERK and MEK phosphorylation was suppressed in large (C) or small (D) tumor xenografts from mice treated with T+MBZ. Tumor extracts were derived from xenografts, then subjected to immunoblot analysis using antibodies specific for total BRAT, phospho-BRAF, ERK1/2, phospho-ERK1/2, total MEK1/2, phospho-MEK1/2, or GAPDH as a loading control. SDS-PAGE and transfer of separated proteins to nitrocellulose membranes were performed according to standard procedures. […] Immune complexes were detected by incubation with appropriate horseradish peroxidase-conjugated antibodies to mouse or rabbit IgG (1:3000) and enhanced chemiluminescence (Pierce, Rockford, Ill.).
# [8] = system: MEK/ERK pathway in BAK cells; assay: Immunoblot analysis of cultured cells; assay type: cell-based, Human; settings: 100 nM; for pMEK1/2 S217/221 phosphorylation: combination within 30 min
# From the text: FIGS. 5A-H are RPPA (A) and immunoblot (B-E) analyses that reveal suppression of the MAPK pathway, including ERK and its downstream substrates in melanoma cells exposed to MBZ+trametinib. A. […] Cell extracts derived at indicated times were subjected to RPPA analysis, and unsupervised hierarchal clustering was used to generate a heat map as described in Materials and Methods. […] F)-H) Immunoblot experiments were repeated with an additional melanoma cell line BUL, which harbors the same NRASQ61K mutation. […] All immunoblots were then reprobed with GAPDH as loading control. SDS-PAGE and transfer of separated proteins to nitrocellulose membranes were performed according to standard procedures. Membranes were stained with Ponceau S (0.1%) to verify equal loading and transfer of proteins, and then incubated with antibodies specific for pERK1/2 T202/Y204, pMEK1/2 S217/221, pBAD S-112, total BAD, total ERK1/2, total MEK1/2, BCL2 (Santa Cruz Biotech), BCLXL (Santa Cruz Biotech (Santa Cruz, Calif.)), cleaved PARP (Cell Signaling (Danvers, Mass.)), or GAPDH (Abeam (Cambridge, UK); loading control). Immune complexes were detected by incubation with appropriate horseradish peroxidase-conjugated antibodies to mouse or rabbit IgG (1:3000) and enhanced chemiluminescence (Pierce, Rockford, Ill.).
# [9] = system: MEK/ERK pathway in BAK NRASQ61K melanoma cells; assay: Reverse-phase protein array (RPPA); assay type: cell-based, Human; settings: 10 nM or 100 nM; 1, 8 or 24 h
# Method: Cell lysates were analyzed by reverse-phase protein array (RPPA). Samples were diluted to 0.5 mg/mL and dilutions printed on slides in triplicate. Slides were immunostained with 137 different antibodies specific for total proteins, or phosphorylated or cleaved products. […] Intensity values were normalized to that of total protein for each sample stained with Sypro Ruby (Invitrogen Carlsbad, Calif.)). Unsupervised cluster analysis http://www.hiv.1an1.ov/content/sequence/HEATMAP/heatmap.html was performed for all proteins in the RPPA using the standard bootstrap method.
# Given the potential changes in tumor cell signaling and survival over the long time course of the xenografts, potential mechanisms by which MBZ+trametinib exerts its cytotoxic effects were examined using cultured BAK NRASQ61K melanoma cells. Cells were exposed to MBZ (10 nM or 100 nM), trametinib (10 nM or 100 nM), or a combination of the two for 1, 8, or 24 h, after which cell extracts were subjected to reverse-phase protein array (RPPA) analysis.
# [10] = 10 mg/kg/day, chronic MBZ; cited from earlier work
# Chain of BRAFV600E (P15056 whole entry V600E): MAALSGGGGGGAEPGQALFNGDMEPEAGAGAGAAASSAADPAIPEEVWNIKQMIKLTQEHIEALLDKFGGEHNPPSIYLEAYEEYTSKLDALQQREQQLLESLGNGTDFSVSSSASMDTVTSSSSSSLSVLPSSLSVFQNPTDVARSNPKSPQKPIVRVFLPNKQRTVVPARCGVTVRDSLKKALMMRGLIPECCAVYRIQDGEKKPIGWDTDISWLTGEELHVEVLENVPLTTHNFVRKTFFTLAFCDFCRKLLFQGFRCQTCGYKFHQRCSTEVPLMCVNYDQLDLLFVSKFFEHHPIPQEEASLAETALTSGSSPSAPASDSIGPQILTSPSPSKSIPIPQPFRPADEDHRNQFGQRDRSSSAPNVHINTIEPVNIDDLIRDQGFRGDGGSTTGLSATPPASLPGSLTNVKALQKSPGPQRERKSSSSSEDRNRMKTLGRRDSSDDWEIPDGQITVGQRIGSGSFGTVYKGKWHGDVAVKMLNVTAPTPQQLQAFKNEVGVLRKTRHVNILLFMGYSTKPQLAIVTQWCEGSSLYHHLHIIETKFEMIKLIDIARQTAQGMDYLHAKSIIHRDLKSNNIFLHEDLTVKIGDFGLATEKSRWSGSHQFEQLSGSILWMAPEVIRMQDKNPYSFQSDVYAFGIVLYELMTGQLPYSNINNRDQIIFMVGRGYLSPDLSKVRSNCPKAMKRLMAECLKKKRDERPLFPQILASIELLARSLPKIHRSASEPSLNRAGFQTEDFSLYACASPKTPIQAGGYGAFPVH
# Chain of CRAF (P04049 whole entry, canonical isoform): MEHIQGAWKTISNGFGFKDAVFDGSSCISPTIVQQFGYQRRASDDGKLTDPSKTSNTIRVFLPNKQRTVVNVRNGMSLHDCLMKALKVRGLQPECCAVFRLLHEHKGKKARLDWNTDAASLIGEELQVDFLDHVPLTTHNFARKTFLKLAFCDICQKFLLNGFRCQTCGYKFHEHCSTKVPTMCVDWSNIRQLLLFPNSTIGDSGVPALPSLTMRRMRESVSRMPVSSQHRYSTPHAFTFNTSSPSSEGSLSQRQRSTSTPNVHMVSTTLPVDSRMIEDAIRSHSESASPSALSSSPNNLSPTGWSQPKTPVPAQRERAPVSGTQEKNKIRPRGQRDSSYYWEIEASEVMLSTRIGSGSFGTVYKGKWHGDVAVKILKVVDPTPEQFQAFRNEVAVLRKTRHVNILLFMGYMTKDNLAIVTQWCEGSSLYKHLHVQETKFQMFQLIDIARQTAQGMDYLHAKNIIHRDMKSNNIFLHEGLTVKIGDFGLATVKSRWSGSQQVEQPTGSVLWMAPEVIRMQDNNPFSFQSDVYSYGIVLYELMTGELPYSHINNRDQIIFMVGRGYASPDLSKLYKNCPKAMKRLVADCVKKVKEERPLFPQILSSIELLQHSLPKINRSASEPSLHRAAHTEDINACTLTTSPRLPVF
# Chain of VEGFR2 (P35968 20-1356): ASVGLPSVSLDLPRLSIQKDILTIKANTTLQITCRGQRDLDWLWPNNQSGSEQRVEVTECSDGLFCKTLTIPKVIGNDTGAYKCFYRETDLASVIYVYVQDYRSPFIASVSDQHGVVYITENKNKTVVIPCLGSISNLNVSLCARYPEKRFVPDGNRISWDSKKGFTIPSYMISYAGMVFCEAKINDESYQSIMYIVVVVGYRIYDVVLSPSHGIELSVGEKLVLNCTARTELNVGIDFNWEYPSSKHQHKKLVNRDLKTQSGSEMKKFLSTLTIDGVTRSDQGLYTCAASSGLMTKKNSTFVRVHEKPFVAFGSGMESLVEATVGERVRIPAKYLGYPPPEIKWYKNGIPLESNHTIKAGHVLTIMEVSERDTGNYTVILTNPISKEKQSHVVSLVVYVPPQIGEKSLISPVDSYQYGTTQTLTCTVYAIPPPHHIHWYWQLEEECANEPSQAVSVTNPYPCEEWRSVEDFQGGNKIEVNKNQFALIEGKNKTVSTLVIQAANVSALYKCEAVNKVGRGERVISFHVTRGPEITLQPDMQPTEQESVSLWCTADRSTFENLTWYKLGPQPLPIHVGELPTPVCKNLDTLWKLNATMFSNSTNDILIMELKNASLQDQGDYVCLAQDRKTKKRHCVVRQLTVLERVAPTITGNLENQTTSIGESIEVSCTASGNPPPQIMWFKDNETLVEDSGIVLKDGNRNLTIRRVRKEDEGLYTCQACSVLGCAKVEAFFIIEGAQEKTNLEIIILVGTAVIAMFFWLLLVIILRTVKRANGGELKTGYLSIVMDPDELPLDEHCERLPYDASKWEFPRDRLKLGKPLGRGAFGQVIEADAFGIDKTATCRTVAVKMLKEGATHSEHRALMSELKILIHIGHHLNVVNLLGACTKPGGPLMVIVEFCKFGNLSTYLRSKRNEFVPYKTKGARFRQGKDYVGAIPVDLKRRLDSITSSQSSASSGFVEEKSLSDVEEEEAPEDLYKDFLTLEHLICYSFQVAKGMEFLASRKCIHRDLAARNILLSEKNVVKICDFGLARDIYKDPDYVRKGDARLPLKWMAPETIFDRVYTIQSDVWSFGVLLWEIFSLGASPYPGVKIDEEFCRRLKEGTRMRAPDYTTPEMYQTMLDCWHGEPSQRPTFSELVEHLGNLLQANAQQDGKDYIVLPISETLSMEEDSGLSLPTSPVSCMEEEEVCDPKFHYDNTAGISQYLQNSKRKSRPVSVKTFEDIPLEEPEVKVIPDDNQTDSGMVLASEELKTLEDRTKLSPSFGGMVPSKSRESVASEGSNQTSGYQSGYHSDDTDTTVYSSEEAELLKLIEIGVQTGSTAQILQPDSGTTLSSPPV
# Chain of BRAFWT (P15056 whole entry): as the sequence (P15056 whole entry V600E) above, with E600V counted along it
compound,measurement,setting,value
"COC(=O)Nc1nc2ccc(C(O)c3ccccc3)cc2[nH]1 (racemic) [RDM, rac Dihydro MBZ]",mean plasma exposure at 8 hours,[1]; methylcellulose formulation,57 ng/mL
same,mean plasma exposure at 8 hours,[1]; oleic acid formulation,543 ng/mL
same,lower exposure with trametinib co-administration vs. methylcellulose,[2],did not alter
"Nc1nc2cc(C(=O)c3ccccc3)ccc2[nH]1 [2ABB, 2-Amino-5-benzoyl-1H bezimidizole]",mean plasma exposure at 8 hours,[1]; methylcellulose formulation,425 ng/mL
same,mean plasma exposure at 8 hours,[1]; oleic acid formulation,427 ng/mL
same,lower exposure with trametinib co-administration vs. methylcellulose,[2],~45%
same,mean plasma exposure at 8 hours,[2]; trametinib co-administration,242 ng/mL
"COC(=O)Nc1nc2ccc(C(=O)c3ccccc3)cc2[nH]1 [MBZ, methyl N-[6-(benzoyl)-1H-benzimidazol-2-yl] carbamate]",Kd,BRAFV600E,210 nM
same,Kd,BRAFWT,230 nM
same,inhibition of kinase activity by MBZ,BRAF,nM range
same,inhibition of kinase activity by MBZ,MEK,nM range
same,affinity for CRAF,CRAF,very low affinity
same,potency towards BRAF versus VEGFR2,VEGFR2,more potency towards BRAF
same,cytotoxicity as single agent,[3],weak cytotoxic activity
same,concentration at which significant growth inhibition was observed,[3]; 2-way ANOVA,≥ 10 nM
same,IC80,[4],~470 nM
same,sensitivity to treatment,[5],sensitivity
same,concentration at 8 h,[1]; methylcellulose formulation,473 ng/mL
same,concentration at 8 h,[1]; oleic acid formulation,1390 ng/mL
same,difference in exposure between formulations or combinations,"[1]; one hour, P>0.05 Kruskal-Wallis",no difference
same,tumor growth,[6],did not work as a monotherapy
same,MEK1/2 and ERK1/2 phosphorylation in tumors,[7],suppress MEK and ERK phosphorylation
same,ERK1/2 (T202/Y204) phosphorylation,[8]; combination undetectable by 30 min,diminished
same,pMEK1/2 S217/221 phosphorylation,[8],not inhibited
same,phosphorylation of proteins associated with the MEK/ERK pathway,[9],down-regulated
same,lower exposure with trametinib co-administration vs. methylcellulose,[2],did not alter
same,mean peak plasma level,[10],470 nM
same,"peak plasma level, variability between patients",[10],0.34 to 1.69 µM
CC(C)(C)c1nc(-c2cccc(NS(=O)(=O)c3c(F)cccc3F)c2F)c(-c2ccnc(N)n2)s1 [dabrafenib],cytotoxicity as single agent,[3],resistance
CC(=O)Nc1cccc(-n2c(=O)n(C3CC3)c(=O)c3c(Nc4ccc(I)cc4F)n(C)c(=O)c(C)c32)c1 [trametinib],pMEK1/2 S217/221 phosphorylation,[8],not inhibited
